Results from patent publication US4051241A.
Like-named read-outs stand apart in the source and are kept apart here. Blank lines part the entries; values can stand above or below the compound they belong to.

Tests used:
HPA axis [1] = conditions: in vivo
Description: 1. Fasting plasma cortisol level at 6 A.M. on each of days 1-14, according to the method of Murphy et al., J. Clin. Endocr.
3. […] The urine of each of the subjects was collected at 6 hour intervals during the entire 14 day period and analyzed for 17-ketogenic steroids for the METP test.

[2] = human, in vivo
Description: The plasma of each volunteer was analyzed for organic solvent extractable radioactivity over a 24 hour period.

[3] = described in U.S. Pat. No. 3,232,965; cited from earlier work
[4] = Metabolic effects: loss of urinary nitrogen and calcium
Description: Four normal subjects were admitted to a hospital metabolic ward and maintained on a constant diet for days 1-3, the equilibration period.
On days 4-9, the control period, the subjects were also kept on the same constant diet and their urine was collected every 24 hours and assayed for nitrogen and calcium, determined fluorometrically using the method of Henry, R. J., Clinical Chemistry Principles and Techniques, 3rd Edition, p.
On days 10-15, the treatment period, the subjects were still kept on the same constant diet, and 20 mg. (three subjects, 1, 2 and 3) and 12.5 mg. (one subject, 4) of 6-chloro-11β,17α,21-trihydroxypregna-1,4-diene-3,20-dione were daily orally administered in a single dose. The urine of the subjects was collected every 24 hours and assayed for nitrogen and calcium.
After 8 weeks had elapsed, subjects 1 and 2 were readmitted to the hospital metabolic ward.

[5] = cited from earlier work
HPA axis [6] = tested on: HPA axis
Description: (§1) Each of 39 normal human subjects was hospitalized on a clinical pharmacology ward for the entire time (14 days) while the procedures described herein were carried out.
(§2) The following tests were performed, except as otherwise indicated in Table II below, on each of the subjects:
Metyrapone (METP) test, according to a modification of the method described by Liddle et al., J. Clin. Endocr. […] The urine of each of the subjects was collected at 6 hour intervals during the entire 14 day period and analyzed for 17-ketogenic steroids for the METP test.
On each of days 5-11 the various corticosteroids were orally administered, all subjects receiving their daily single dosage of corticosteroids at 6 A.M. Tabulated below, in Table II, are the numbers of subjects receiving a particular dosage per day of a particular corticosteroid.

HPA axis [7] = conditions: oral, 6 A.M., 7 days
Description: as §1, §2
On each of days 5-11 the various corticosteroids were orally administered, all subjects receiving their daily single dosage of corticosteroids at 6 A.M. Tabulated below, in Table II, are the numbers of subjects receiving a particular dosage per day of a particular corticosteroid. The dosage regimens chosen reflect the relative potencies of the corticosteroids tested.

Plasma Half-Life [2]: 2 h
half-life, volunteer No. 1 [2]: approximately 110 minutes
half-life, volunteer No. 2 [2]: approximately 125 minutes
loss of nitrogen and calcium, comparison of 6-chloro compound with prednisolone ([4]; in vivo): minimized
SMILES: C[C@]12C=CC(=O)C=C1C(Cl)=C[C@@H]1[C@@H]2[C@@H](O)C[C@@]2(C)[C@H]1CC[C@]2(O)C(=O)CO
unwanted side-effects associated with HPA axis suppression (HPA axis [1]): not present
action [3]: cortisone like (anti-inflammatory) action

SMILES: C[C@]12C=CC(=O)C=C1CC[C@H]1[C@@H]3C[C@@H](O)[C@](O)(C(=O)CO)[C@@]3(C)C[C@H](O)[C@@]12F [9α-Fluoro-16α-hydroxyprednisolone, 9α-fluoro-11β,16α,17α,21-tetrahydroxypregna-1,4-diene-3,20-dione]
Plasma Half-Life ([5]; in vivo): ≥ 3.33 h

subjects showing a normal metyrapone test (HPA axis [6]; in vivo): none
SMILES: C[C@H]1C[C@H]2[C@@H]3CCC4=CC(=O)C=C[C@]4(C)[C@@]3(F)[C@@H](O)C[C@]2(C)[C@@]1(O)C(=O)CO [9α-Fluoro-16β-methylprednisolone]

SMILES: C[C@]12C=CC(=O)C=C1CC[C@@H]1[C@@H]2[C@@H](O)C[C@@]2(C)[C@H]1CC[C@]2(O)C(=O)CO [Prednisolone]
Normal/Total METP Response (HPA axis [6]; 25.0 mg per day, oral, 6 A.M., 7 days): 3/3
Plasma Half-Life ([5]; Melby, Ann. Int. Med., 81:505-512, 1974): ≥ 3.33 h
Normal/Total A.M. Plasma Cortisol (HPA axis [7]; 5.0 mg per day): 3/3
Normal/Total A.M. Plasma Cortisol (HPA axis [7]; 10.0 mg per day): 3/3
loss of nitrogen and calcium, comparison of 6-chloro compound with prednisolone ([4]; equipotent doses, subjects 1 and 2): greater loss of both nitrogen and calcium
